Assay [1] has as its target C. parvum PI(4)K (Cryptosporidium parvum, UniProt Q5CVD3). The assay can be described thus: CpPI(4)K enzymatic assay (Transcreener ADP2 FP). Type of assay: biochemical. An excerpt:
Baculovirus expression and purification of C. parvum phosphatidylinositol 4-kinase: The full-length coding sequence of C. parvum PI(4)K (cgd8_4500, 1114 amino acids) was codon-optimized for baculovirus expression, synthesized and cloned into pFastBac-HTb (Invitrogen 10584-027) in frame with the amino-terminal polyhistidine tag using the BamHI and HindIII restriction sites. Recombinant pFastBacHTb-CpPI(4)K bacmid clones were generated by site-specific transposition in E. coli DH10Bac (Invitrogen 10361-012). The bacmid sequence was confirmed by direct DNA sequencing to confirm a lack of mutations across the whole gene. The subsequent steps for bacmid isolation, transfection and selection of the recombinant viruses were performed according to the manufacturer's protocol (Bac-to-Bac system #10359, Invitrogen).
SF9 cells, cultured in […] serum-free medium, were transfected with recombinant baculovirus at 1/200 (v/v) and incubated at 27° C. for 72 h. The pellets were collected after centrifugation and re-suspended in cell lysis buffer (20 mM Tris-HCl, pH 7.5, 300 mM NaCl, 1 mM DTT, 20 mM imidazole, 0.01% Triton X-100 and 1× complete protease inhibitor cocktail without EDTA (Roche Diagnostics 04693116001)). The cell suspension was lysed by sonication and the clarified supernatant was loaded onto a 1 ml HisTrap affinity column (GE Healthcare) pre-equilibrated with buffer A (20 mM Tris-HCl, pH 7.5, 300 mM NaCl, 1 mM DTT, 20 mM Imidazole, and 1× complete protease inhibitor cocktail without EDTA). The column was washed with buffer B (buffer A containing 45 mM imidazole) and the bound protein of interest was eluted with buffer C (buffer A with 90 mM imidazole). The fractions containing CpPI(4)K were pooled, concentrated using Amicon Ultra-15 and purified by a gel-filtration column (Hi-Load 26/60 Superdex 200, GE Healthcare) equilibrated with 20 mM Tris, pH 7.5, 300 mM NaCl, 1 mM DTT and 1× protease inhibitor cocktail without EDTA. The concentrations of the purified protein (Mw 132.39 kda) was determined by using the protein molar extinction coefficient (ε280 nm=133,810 M^−1 cm^−1). Aliquots were flash frozen in liquid nitrogen and immediately stored at −80° C.
PI(4)K enzymatic Assay The CpPI(4)K enzymatic assay was performed as described earlier with a some modifications (McNamara et al., 2013). Briefly, L-α-phosphatidylinositol (Avanti Polar Lipid 840046), dissolved in 3% n-octylglucoside (Roche Diagnostics 10634425001), was used as the lipid substrate for the PI(4)K activity assay. CpPI(4)K was assayed using Transcreener ADP2 FP detection kit (BellBrook 3010) in a black, solid 384-well plate (Corning 3575). The final assay volume was 10 μl and contained 3 nM of the respective CpPI(4)K construct in 10 mM Tris, pH 7.5, 1 mM DTT, 3 μM ATP, 5 mM Mn2+, 0.05% Triton X-100 and 10 μM phosphatidylinositol/octylglucoside. The enzyme reaction was performed for 50 minutes at room temperature and was stopped by adding 10 μl of detection mix containing 1× stop buffer (50 mM HEPES, pH7.5, 400 mM NaCl, 20 mM EDTA, and 0.02% Brij-35), 2 nM AMP Alexa Fluor 633 tracer, and 20 μg ml^−1 ADP antibody. Fluorescence polarization measurements were performed on the Infinite M1000 plate reader (Tecan) with λex=635 nm and λem=680 nm (20-nm bandwidth). IC50 values were calculated using Graphpad Prism software.

For assay [2], the system named is Cryptosporidium parvum. The assay can be described thus: Cytopathic effect (CPE) based assay, C. parvum-infected HCT-8 cells. Type of assay: cell-based. To be noted: HCT-8, 48 h, read-out: (b) C.p.* CPE EC50 (μM). How it is done:
Human ileocecal colorectal adenocarcinoma cells (HCT-8 [HRT-18] ATCC, CCL-34) were maintained in T-175 flasks (Corning, 431080) in complete growth medium (RPMI-1640 medium (Gibco, 11875) supplemented with 10% heat-inactivated horse serum (Gibco, 26050), 1× MEM non-essential amino acids (Gibco, 11140), 10 mM HEPES (Gibco, 15630), 100 units/mL penicillin, and 100 units/mL streptomycin) at 37° C. and 5% CO2 in a humidified incubator. Cultures were passaged twice weekly using 10 mL of 1× Phosphate-Buffered Saline (PBS) without Ca^2+ and Mg^2+ (Gibco, 20012) for washing and 3-5 mL per T-175 flask of TrypLE Express Enzyme (Gibco, 12604) for dissociation of adherent cells.
Cryptosporidium parvum oocysts purchased from the Sterling Laboratory, University of Arizona (Iowa isolate) were purified from infected calf feces using discontinuous sucrose and cesium chloride centrifugation gradients and stored in PBS solution containing 0.01% Tween 20, 100 units/mL penicillin and 100 units/mL gentamicin.
Excystaion and infection: Excystation and infection protocols were developed following established methods with some modifications (Gut & Nelson, 1999, Upton et al., 1995, Bessoff et al., 2013). Briefly, oocysts were primed in 1 mL of 10 mM hydrochloric acid in 1× Hank's Balanced Salt Solution (HBSS) (Gibco, 14025) for 10 minutes with agitation at 1000 rpm, 37° C. on an Eppendorf thermomixer, then washed twice with 1 mL of room temperature non-acidic 1× HBSS by centrifugation at 13,000 rpm for 3 minutes at 25° C. Primed oocysts were further excysted at a concentration of 1×10^6 oocysts/μL in parasite infection medium consisting of a pre-warmed and pre-gassed 1:1 formulation of Leibovitz's L-15 medium (Gibco, 11415) and UltraCULTURE medium (Lonza, 12-725F) supplemented with 2 mM sodium taurocholate (Sigma, 86339-1), 10% heat-inactivated horse serum, and 200 μM L-ascorbic acid (Sigma, 95210) at 25° C. for 10 minutes. HCT-8 monolayer cells were infected with excysted cryptosporidium at a specified multiplicity of infection (MOI). All dilutions for subsequent assays were performed in parasite infection medium without sodium taurocholate. Pre-excysted oocysts were enumerated microscopically using a C-Chip disposable hemocytometer (NanoEnTek, DHC-N01).
Compound and assay plate preparation: Compound powders were dissolved in neat DMSO (Fisher, D4121) to 10 mM and stored at 4° C. prior to dilution into source plates. Dilutions were carried out using a Microlab STAR liquid handler (Hamilton) to obtain compound source plates containing the ten-point or eight-point three fold dilutions starting from 10 mM in duplicates. Source plates were stored at 4° C. prior to spotting into assay plates. Before administration, all compound source plates were equilibrated to room temperature. A specified volume of compounds from source plate were spotted to assay plate using an Echo Acoustic liquid handler (LABCYTE, 550) so that the final DMSO concentration was less than 0.5%. Each assay plate a specified number of DMSO-treated negative control wells and a well-studied potent active compound at 100 nM as positive control. As a quality control, all positive and negative-control wells were used to calculate a Z′-value and signal to noise ratio (S:N) for each plate.
Cryptosporidium spp are obligate-intracellular parasites that infect intestinal epithelial cells and the host cell is killed upon parasite egress. […] The loss of epithelial cells is due to both rapid parasite invasion/multiplication/egress and also pro-inflammatory immune response (Adams et al., 1994, Griffiths et al., 1994). We have observed a consistent cytopathic effect (CPE) in HCT-8 cells with C. spp infection the loss of viability of the host cells using CellTiter-Glo reagent.
Confluent HCT-8 cells in T-175 flasks were directly infected with excysted oocysts at an MOI (host to parasite) of 1:2 for C. parvum and 1:4 for C. hominis. […]

SMILES strings stand for the structures.

Sequence of C. parvum PI(4)K (Q5CVD3 entry or part of it): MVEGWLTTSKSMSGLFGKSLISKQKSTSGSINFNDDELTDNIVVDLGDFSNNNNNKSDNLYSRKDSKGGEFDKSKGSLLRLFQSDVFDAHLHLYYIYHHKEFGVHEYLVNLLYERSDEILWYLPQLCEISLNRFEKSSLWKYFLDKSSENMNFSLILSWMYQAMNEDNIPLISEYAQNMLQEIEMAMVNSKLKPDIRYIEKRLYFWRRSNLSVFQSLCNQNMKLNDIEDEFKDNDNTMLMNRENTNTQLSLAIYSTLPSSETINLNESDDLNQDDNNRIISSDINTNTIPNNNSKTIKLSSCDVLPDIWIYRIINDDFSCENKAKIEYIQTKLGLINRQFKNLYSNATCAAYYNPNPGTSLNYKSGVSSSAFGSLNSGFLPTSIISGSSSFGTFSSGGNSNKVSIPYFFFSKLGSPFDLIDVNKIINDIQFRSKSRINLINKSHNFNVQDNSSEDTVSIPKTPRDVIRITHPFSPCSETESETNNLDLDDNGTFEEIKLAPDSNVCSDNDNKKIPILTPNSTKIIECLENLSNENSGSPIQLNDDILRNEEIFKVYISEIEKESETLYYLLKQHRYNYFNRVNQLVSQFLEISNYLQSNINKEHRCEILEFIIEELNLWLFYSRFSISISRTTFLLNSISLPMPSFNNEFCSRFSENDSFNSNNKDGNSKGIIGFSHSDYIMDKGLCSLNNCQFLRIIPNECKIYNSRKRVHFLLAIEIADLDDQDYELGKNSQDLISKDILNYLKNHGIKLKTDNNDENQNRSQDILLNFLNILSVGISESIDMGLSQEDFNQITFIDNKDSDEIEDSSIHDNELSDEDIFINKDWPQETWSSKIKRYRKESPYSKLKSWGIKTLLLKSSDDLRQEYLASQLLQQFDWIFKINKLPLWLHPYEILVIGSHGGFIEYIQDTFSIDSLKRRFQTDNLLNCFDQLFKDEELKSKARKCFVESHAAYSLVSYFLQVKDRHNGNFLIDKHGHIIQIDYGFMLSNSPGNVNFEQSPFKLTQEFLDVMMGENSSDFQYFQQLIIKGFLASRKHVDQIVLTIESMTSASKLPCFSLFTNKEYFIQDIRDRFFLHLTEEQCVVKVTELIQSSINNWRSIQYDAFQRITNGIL

In general, IC50 refers to the midpoint of a concentration-inhibition curve. The EC50 is the concentration that produces a half-maximal response. Regarding `CN(C(=O)c1ccn2ncc(-c3ccc(C(N)=O)cc3)c2c1)c1ccc(Cl)c(C(=O)OCC2CCCO2)c1` (racemic) [Example 1.15, rac-(Tetrahydrofuran-2-yl)methyl 5-(3-(4-carbamoylphenyl)-N-methylpyrazolo[1,5-a]pyridine-5-carboxamido)-2-chlorobenzoate], the IC50 in assay [1] is less than 100 nM. Further, the EC50 in assay [2] lay within 0.1 to 1 µM.
The corresponding values for `CN(C(=O)c1ccn2ncc(-c3ccc(C(N)=O)cc3)c2c1)c1ccc(Cl)c(C(=O)OC(C)(C)C)c1` [Example 1.02, tert-Butyl 5-(3-(4-carbamoylphenyl)-N-methylpyrazolo[1,5-a]pyridine-5-carboxamido)-2-chlorobenzoate] are less than 100 nM and 0.1 to 1 µM.
For the compound `CSCCOC(=O)c1cc(N(C)C(=O)c2ccn3ncc(-c4ccc(C(N)=O)cc4)c3c2)ccc1Cl` [Example 1.04, 2-(Methylthio)ethyl 5-(3-(4-carbamoylphenyl)-N-methylpyrazolo[1,5-a]pyridine-5-carboxamido)-2-chlorobenzoate], in assay [1], the IC50 was less than 100 nM. The EC50 in assay [2] was more than 1 µM.
The corresponding values for `CC(C)COC(=O)c1cc(N(C)C(=O)c2ccn3ncc(-c4ccc(C(N)=O)cc4)c3c2)ccc1Cl` [Example 1.05, Isobutyl 5-(3-(4-carbamoylphenyl)-N-methylpyrazolo[1,5-a]pyridine-5-carboxamido)-2-chlorobenzoate] are less than 100 nM and 0.1 to 1 µM.
The corresponding values for `COC(=O)COC(=O)c1cc(N(C)C(=O)c2ccn3ncc(-c4ccc(C(N)=O)cc4)c3c2)ccc1Cl` [Example 1.06, 2-Methoxy-2-oxoethyl 5-(3-(4-carbamoylphenyl)-N-methylpyrazolo[1,5-a]pyridine-5-carboxamido)-2-chlorobenzoate] are less than 100 nM and more than 1 µM.
The corresponding values for `CN(C(=O)c1ccn2ncc(-c3ccc(C(N)=O)cc3)c2c1)c1ccc(Cl)c(C(=O)OCc2cncs2)c1` [Example 1.07, Thiazol-5-ylmethyl 5-(3-(4-carbamoylphenyl)-N-methylpyrazolo[1,5-a]pyridine-5-carboxamido)-2-chlorobenzoate] are less than 100 nM and 0.1 to 1 µM.
`CCOC(=O)c1cc(N(C)C(=O)c2ccn3ncc(-c4ccc(C(N)=O)cc4)c3c2)ccc1Cl` [Example 1.09, Ethyl 5-(3-(4-carbamoylphenyl)-N-methylpyrazolo[1,5-a]pyridine-5-carboxamido)-2-chlorobenzoate] displayed a half-inhibitory concentration (IC50) in assay [1] of less than 100 nM. Besides, in assay [2], the EC50 lay in the range of 0.1 to 1 µM.
For `CN(C(=O)c1ccn2ncc(-c3ccc(C(N)=O)cc3)c2c1)c1ccc(Cl)c(C(=O)OCC(F)(F)F)c1` [Example 1.10, 2,2,2-Trifluoroethyl 5-(3-(4-carbamoylphenyl)-N-methylpyrazolo[1,5-a]pyridine-5-carboxamido)-2-chlorobenzoate] the same measures were less than 100 nM and more than 1 µM.
For `COCCOC(=O)c1cc(N(C)C(=O)c2ccn3ncc(-c4ccc(C(N)=O)cc4)c3c2)ccc1Cl` [Example 1.11, 2-Methoxyethyl 5-(3-(4-carbamoylphenyl)-N-methylpyrazolo[1,5-a]pyridine-5-carboxamido)-2-chlorobenzoate] the same measures were less than 100 nM and 0.1 to 1 µM.
The compound `CN(C)C(=O)COC(=O)c1cc(N(C)C(=O)c2ccn3ncc(-c4ccc(C(N)=O)cc4)c3c2)ccc1Cl` [Example 1.12, 2-(Dimethylamino)-2-oxoethyl 5-(3-(4-carbamoylphenyl)-N-methylpyrazolo[1,5-a]pyridine-5-carboxamido)-2-chlorobenzoate] gave an IC50 in assay [1] of less than 100 nM. In assay [2], the EC50 is 0.1 to 1 µM.
For `CC(C)OC(=O)c1cc(N(C)C(=O)c2ccn3ncc(-c4ccc(C(N)=O)cc4)c3c2)ccc1Cl` [Example 1.13, Isopropyl 5-(3-(4-carbamoylphenyl)-N-methylpyrazolo[1,5-a]pyridine-5-carboxamido)-2-chlorobenzoate] the same measures were less than 100 nM and 0.1 to 1 µM.
For `CNC(=O)c1ccc(-c2cnn3ccc(C(=O)N(C)c4ccc(Cl)c(C(=O)OC(C)(C)C)c4)cc23)cc1` [Example 1.17, t-Butyl 2-chloro-5-(N-methyl-3-(4-(methylcarbamoyl)phenyl)pyrazolo[1,5-a]pyrdine-5-carboxamido)benzoate] the same measures were less than 100 nM and less than 0.1 µM.
The corresponding values for `CNC(=O)c1ccc(-c2cnn3ccc(C(=O)N(C)c4ccc(OC(F)(F)F)c(C(=O)OC)c4)cc23)cc1` [Example 1.26, Methyl 5-(N-methyl-3-(4-(methylcarbamoyl)phenyl)pyrazolo[1,5-a]pyridine-5-carboxamido)-2-(trifluoromethoxy)benzoate] are less than 100 nM and 0.1 to 1 µM.

Source of the values: US12018024B2, “Compounds and compositions for the treatment of cryptosporidiosis” (Novartis AG, priority 2020, dated 2024).
